EC50 data for eleven molecules are collected here from patent publication US9522886B2, “Pyridine derivatives” (Hoffmann-La Roche Inc., priority 2012, dated 2016).

For one test, the target named is human CB2 receptors (Homo sapiens (Human), UniProt P34972). The test is described as follows: cAMP assay, CHO cells expressing human CB2 receptors. The class given is cell-based. The procedure: (§1) CHO cells expressing human CB1 or CB2 receptors are seeded 17-24 hours prior to the experiment 50.000 cells per well in a black 96 well plate with flat clear bottom (Corning Costar #3904) in DMEM (Invitrogen No. 31331), 1×HT supplement, with 10% fetal calf serum and incubated at 5% CO2 and 37° C. in a humidified incubator. The growth medium was exchanged with Krebs Ringer Bicarbonate buffer with 1 mM IBMX and incubated at 30° C. for 30 min. Compounds were added to a final assay volume of 100 μl and incubated for 30 min at 30° C. Using the cAMP-Nano-TRF detection kit the assay (Roche Diagnostics) was stopped by the addition of 50 μl lysis reagent (Tris, NaCl, 1.5% Triton X100, 2.5% NP40, 10% NaN3) and 50 μl detection solutions (20 μM mAb Alexa700-cAMP 1:1, and 48 μM Ruthenium-2-AHA-cAMP) and shaken for 2 h at room temperature. The time-resolved energy transfer is measured by a TRF reader (Evotec Technologies GmbH), equipped with a ND:YAG laser as excitation source. The plate is measured twice with the excitation at 355 nm and at the emission with a delay of 100 ns and a gate of 100 ns, total exposure time 10 s at 730 (bandwidth 30 nm) or 645 nm (bandwidth 75 nm), respectively.
Chain of human CB2 receptors (P34972 whole entry): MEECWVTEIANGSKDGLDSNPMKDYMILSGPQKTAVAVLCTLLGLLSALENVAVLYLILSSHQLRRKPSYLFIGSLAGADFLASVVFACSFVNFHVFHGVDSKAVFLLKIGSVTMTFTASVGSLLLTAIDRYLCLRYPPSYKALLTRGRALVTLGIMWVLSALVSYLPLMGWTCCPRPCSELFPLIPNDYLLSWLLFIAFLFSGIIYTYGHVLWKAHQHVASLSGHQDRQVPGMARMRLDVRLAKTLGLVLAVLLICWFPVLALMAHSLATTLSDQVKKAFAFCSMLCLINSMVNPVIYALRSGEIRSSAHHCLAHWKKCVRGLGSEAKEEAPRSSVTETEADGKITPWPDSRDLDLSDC
(§2) EC50 values were determined using Activity Base analysis (ID Business Solution, Limited).

The next test deals with human CB1 receptors (Homo sapiens (Human), UniProt P21554). The test is described as follows: cAMP assay, CHO cells expressing human CB1 receptors. It counts as cell-based. The method, then: as §1, §2
Chain of human CB1 receptors (P21554 whole entry): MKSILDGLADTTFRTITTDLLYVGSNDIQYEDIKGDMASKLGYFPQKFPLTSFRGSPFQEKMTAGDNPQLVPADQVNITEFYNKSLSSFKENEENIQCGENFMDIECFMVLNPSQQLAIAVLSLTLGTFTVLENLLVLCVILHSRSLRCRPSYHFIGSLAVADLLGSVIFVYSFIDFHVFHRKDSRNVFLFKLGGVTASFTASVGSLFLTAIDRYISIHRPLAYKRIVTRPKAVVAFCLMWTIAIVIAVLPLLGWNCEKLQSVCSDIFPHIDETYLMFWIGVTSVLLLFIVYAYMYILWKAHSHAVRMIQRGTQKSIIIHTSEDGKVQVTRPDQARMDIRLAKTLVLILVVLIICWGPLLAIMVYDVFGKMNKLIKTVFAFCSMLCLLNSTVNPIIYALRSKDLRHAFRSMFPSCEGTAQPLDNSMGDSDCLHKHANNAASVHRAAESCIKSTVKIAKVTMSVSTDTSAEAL
Where [1] appears, read: functional cAMP assay, CHO cells expressing human CB2, read-out: human CB2 EC50.
Where [2] appears, read: functional cAMP assay, CHO cells expressing human CB1, read-out: human CB1 EC50.

Read-outs that look alike come from different tables or passages of the source.

For `NC(=O)CC1(NC(=O)c2ccc(N3CC(F)(F)C3)c(OCC3CC3)n2)CCOC1` (stereo not shown) [Example 82, N-[3-(2-Amino-2-oxoethyl)oxolan-3-yl]-6-(cyclopropylmethoxy)-5-(3,3-difluoroazetidin-1-yl)pyridine-2-carboxamide], the EC50 (commonly the midpoint of the concentration-response curve) on human CB2 receptors (setting [1]) is 1.5 nM; on human CB1 receptors (setting [2]), > 10000 nM.
As for `NC(=O)CC(NC(=O)c1ccc(C2CC2)c(OCC2CC2)n1)C1CCCCC1` (single isomer, unassigned; (+)) [Example 18, (+)-5-Cyclopropyl-6-cyclopropylmethoxy-pyridine-2-carboxylic acid (2-carbamoyl-1-cyclohexyl-ethyl)-amide], the EC50 was 1.5 nM at human CB2 receptors (setting [1]) and > 10000 nM on human CB1 receptors (setting [2]).
`NC(=O)CC1(NC(=O)c2ccc(C3CC3)c(OCC3CC3)n2)CSC1` [Example 96, N-[3-(2-Amino-2-oxoethyl)thietan-3-yl]-5-cyclopropyl-6-(cyclopropylmethoxy)pyridine-2-carboxamide]: the EC50 at human CB2 receptors (setting [1]) was 1.8 nM; on human CB1 receptors (setting [2]) it was > 10000 nM.
Consider `CCOC(=O)CC(CC(C)C)NC(=O)c1ccc(C2CC2)c(OCC2CC2)n1` (stereo not shown) [Example 22, 3-[(5-Cyclopropyl-6-cyclopropylmethoxy-pyridine-2-carbonyl)-amino]-5-methyl-hexanoic acid ethyl ester], for which the EC50 on human CB2 receptors (setting [1]) was 11.9 nM; at human CB1 receptors (setting [2]), > 10000 nM.
As to `NC(=O)CC1(NC(=O)c2ccc(OC(F)(F)F)c(OCC3CC3)n2)COC1` [Example 46, 6-Cyclopropylmethoxy-5-trifluoromethoxy-pyridine-2-carboxylic acid (3-carbamoylmethyl-oxetan-3-yl)-amide], the EC50 at human CB2 receptors (setting [1]) is 31.4 nM; on human CB1 receptors (setting [2]), > 10000 nM.
Regarding `NC(=O)CC(NC(=O)c1ccc(N2CC(F)(F)C2)c(OCC2CC2)n1)C1CCOC1` (stereo not shown) [Example 67, N-[3-Amino-3-oxo-1-(oxolan-3-yl)propyl]-6-(cyclopropylmethoxy)-5-(3,3-difluoroazetidin-1-yl)pyridine-2-carboxamide], the EC50 at human CB2 receptors (setting [1]) is 8.3 nM; on human CB1 receptors (setting [2]), > 10000 nM.
As to `NC(=O)CC(NC(=O)c1ccc(C2CC2)c(OCC2CC2)n1)C1CC1` (single isomer, unassigned; (-)) [Example 27, (−)-5-Cyclopropyl-6-cyclopropylmethoxy-pyridine-2-carboxylic acid (2-carbamoyl-1-cyclopropyl-ethyl)-amide], the EC50 on human CB2 receptors (setting [1]) is 1.4 nM; at human CB1 receptors (setting [2]), > 10000 nM.
For the molecule `NC(=O)CC1(NC(=O)c2ccc(C3CC3)c(Cc3ccc(F)cc3)n2)CCOC1` (stereo not shown) [Example 87, N-[3-(2-Amino-2-oxoethyl)oxolan-3-yl]-5-cyclopropyl-6-[(4-fluorophenyl)methyl]pyridine-2-carboxamide], the results for the EC50 on human CB2 receptors and at human CB1 receptors were 0.3 nM and 34.8 nM, respectively.
Consider `CCOC(=O)CC1(NC(=O)c2ccc(C3CC3)c(OCC3CC3)n2)COC1` [Example 1, {3-[(5-Cyclopropyl-6-cyclopropylmethoxy-pyridine-2-carbonyl)-amino]-oxetan-3-yl}-acetic acid ethyl ester], for which the EC50 on human CB2 receptors (setting [1]) is 53.7 nM; on human CB1 receptors (setting [2]), > 10000 nM.
The corresponding values for `CC(C)C[C@H](CC(N)=O)NC(=O)c1ccc(C2CC2)c(OCC2CC2)n1` [Example 25, (+)-5-Cyclopropyl-6-cyclopropylmethoxy-pyridine-2-carboxylic acid (1-carbamoylmethyl-3-methyl-butyl)-amide] are 4.3 nM and > 10000 nM.
Regarding `NC(=O)CC1(NC(=O)c2ccc(N3CC(F)(F)C3)c(OCC3CC3)n2)CCSCC1` [Example 62, 6-Cyclopropylmethoxy-5-(3,3-difluoro-azetidin-1-yl)-pyridine-2-carboxylic acid (4-carbamoylmethyl-tetrahydro-thiopyran-4-yl)-amide], the EC50 was 2.5 nM on human CB2 receptors (setting [1]) and > 10000 nM at human CB1 receptors (setting [2]).
